In patent publication US20050215621A1, “Method of treating amyloid beta precursor disorders” (Andrx Labs, LLC, priority 1999, published 2005):

What was measured:
[1] = test system: H4, MDCK, and CHO cells, expressing human APPm; assay: [35S]-Met pulse-chase, immunoprecipitation (antibody 6E10) and autoradiography of Aβ peptides after 4 days with compound; assay type: cell-based, canine, Chinese hamster; details: for decrease of extracellular Aβ peptides as compared to the untreated cells: 0.5 μM, 4 days, H4, MDCK, CHO cells
Procedure: (§1) The three cell lines utilized were: Chinese Hamster Ovary (CHO) cells expressing the 751 amino acid form of APP; Mabin-Darby Canine Kidney (MDCK) cells which overexpress the 695 amino acid form of APP; Human neuroglioma (H4) cells overexpressing the 695 form of human APP. All cells were prepared by the stable introduction of a cDNA coding for human APP. All cell lines were maintained in DMEM containing 10% FBS and antibiotics.
In order to characterize the effects of cholesterol depletion, cell cultures of each cell line were cultured on six-well plates for 4 days in DMEM containing 10% FCLPDS, in the presence of lovastatin or lovastatin acid (LA).
For measurement of APP processing and Aβ peptide formation, medium was removed and the cells were washed once with PBS and then incubated for 2 hours in DMEM containing 1 mCi/ml [^35S] Methionine. After this “pulse” period, the cells were either (1) lysed to measure the total labeled APPi and APPm at time zero, or (2) the cells were incubated for 2 hours in fresh, unlabeled complete medium (“chase”) and then lysed. Then the cell supernatants and lysates were treated with the appropriate antibody to calculate the amounts of APPi, APPm, APPs, and Aβ peptides.
To measure Aβ peptides, or to measure APPs, which is the secreted carboxyl-terminal truncated form, cell supernatants were incubated with antibody 6E10,which recognizes the first 15 amino acids of the Aβ peptide that correspond to the COOH-terminal amino acids of APPs. See Buxbaum, J. D., et al. (I 994) Proc Natl Acad Sci USA, 91:4489-93, which is incorporated herein by reference.
The incubations with antibody 6E10 or antibody 369 were performed at 4° C. for 75 minutes followed by a 45 minute incubation at 4° C. with either agarose-linked anti-mouse IgG for antibody 6E1O or protein A sepharose for antibody 369. The beads were then washed three times for 10 minutes and then run on either a 10-20% Tris-Tricine Gel for APPs and Aβ peptides or an 8% polyacrylamide gel for cell-associated APP. The gels were dried and exposed to a Phosphor Imager® screen (STORM 860, Molecular Dynamics) and exposed for a minimum of two days. The protein bands were visualized on a STORM 860 Phosphor Imager® (Molecular Dynamics) and quantitated using ImageQuant® (Molecular Dynamics).
To determine whether a decrease in cholesterol is associated with a change in the amount of extracellular Aβ peptides, the H4, MDCK, and CHO cells, expressing human APPm were incubated for 4 days in the presence or absence of 0.5 μM LA. The cells were then incubated in serum-free media containing 1 mCi/mi [^35S] […] Relative levels of extracellular Aβ peptides were determined under each condition by quantitative PhosphorImager autoradiography. […]

[2] = test system: Human neuroglioma (H4) cells overexpressing the 695 form of human APP; assay: APP processing ([35S]-labeled APPs and APPm) in H4 cells; assay type: cell-based
Procedure: as §1
For measurement of APP processing and Aβ peptide formation, medium was removed and the cells were washed once with PBS and then incubated for 2 hours in DMEM containing 1 mCi/ml [^35S] Methionine. […]
The incubations with antibody 6E10 or antibody 369 were performed at 4° C. for 75 minutes followed by a 45 minute incubation at 4° C. with either agarose-linked anti-mouse IgG for antibody 6E1O or protein A sepharose for antibody 369. […] The protein bands were visualized on a STORM 860 Phosphor Imager® (Molecular Dynamics) and quantitated using ImageQuant® (Molecular Dynamics).
To determine whether cholesterol depletion affects other aspects of APP processing, H4 cells were incubated for four days in the presence or absence of 0.5 μM LA, and subjected to metabolic labeling. The levels of [^35S]-labeled APPi and APPm were determined by immunoprecipitation from cell lysates with an antibody against the COOH-terminal of APP, followed by quantitative autoradiography. […]

| Structure (SMILES) | [35S]-labeled intracellular Aβ peptides in cell lysates ([1]; 0.5 μM LA) | decrease of extracellular Aβ peptides as compared to the untreated cells [1] | concentration sufficient to significantly (p<0.001) decrease extracellular Aβ peptides ([1]; each cell type, various LA concentrations) | effects on maturation ([35S]-labeled APPm levels) ([2]; 0.5 μM LA (FIG. 6)) | [35S]-labeled APPs formation compared to control cells ([2]; H4 cells, 0.5 μM LA, 4 days (FIG. 5)) |
| --- | --- | --- | --- | --- | --- |
| CC[C@H](C)C(=O)O[C@H]1C[C@@H](C)C=C2C=C[C@H](C)[C@H](CC[C@@H](O)C[C@@H](O)CC(=O)O)[C@H]21 [LA, lovastatin acid] | No detectable levels | 40-60% | ≥ 0.05 µM | not sufficient to account for the decrease in Aβ peptide levels | modest decrease |
| CC[C@H](C)C(=O)O[C@H]1C[C@@H](C)C=C2C=C[C@H](C)[C@H](CC[C@@H]3C[C@@H](O)CC(=O)O3)[C@H]21 [lovastatin] | – | < 20% | – | – | – |
